The values below come from US20250049929A1, “NOVEL TETRAHYDROQUINOLINES AND PROTEOLYSIS TARGETING CHIMERA (PROTACS) COMPRISING THEM AS DEGRADERS OF SMARCA” (Boehringer Ingelheim International GmbH, priority 2021, published 2025).

One test concerns the target T1, SMARCA2BD (Homo sapiens, UniProt P51531).
T1 construct: the SMARCA2BD prepared at 0.5-0.7 mg/mL in coupling buffer
Description: Binary SMARCA2 binding affinity determination (A2 binary): SMARCA2 SPR binding experiments. As for the experimental part:
Binary SMARCA2 Binding Affinity Determination (A2 Binary [nM]):
SMARCA2 SPR Binding Experiments
SPR experiments were performed on Biacore 8K or T200 instruments (GE Healthcare). Immobilization of target protein was carried out at 25° C. on a CM5 chip using amine coupling (EDC/NHS, GE Healthcare) in HBS-P+ running buffer, containing 2 mM TCEP, pH 7.4. […] The surface was deactivated using 1 M ethanolamine.
All interaction experiments were performed at 6° C. in running buffer containing 20 mM TRIS, 150 mM potassium chloride, 2 mM magnesium chloride, 2 mM TCEP, 0.005% TWEEN 20, 1% dimethyl sulfoxide; pH 8.3. Sensorgrams from reference surfaces and blank injections were subtracted from the raw data prior to data analysis using Biacore T200 or Biacore 8K evaluation software. Sensorgrams recorded at different compound concentrations in multi-cycle experiments were fitted using a 1:1 interaction model, with a term for mass-transport included.
(In general: SPR reads the build-up and loss of mass on a sensor chip optically.)

Another test has as its target T2, SMARCA2 (Homo sapiens, UniProt P51531).
T2 construct: endogenous in cells; host or cells: RKO cells (CRL-2577, ATCC)
Description: SMARCA2 degradation analysis by imaging in RKO cells (DC50 A2). The settings on record: tables 69, 70, 73, 76-78. The class given is cell-based. How it is done:
(§1) Determination of SMARCA2 and SMARCA4 Degradation (DC50 A2 and A4 [nM])
(§2) Protein Degradation Assays for SMARCA2 and SMARCA4
(§3) For degradation analysis by imaging, 1250 RKO cells (CRL-2577, ATCC) per well were seeded into 60 μL DMEM (Sigma Aldrich) supplemented with 10% FBS (Hyclone) in 384-well flat bottom plates (CellCarrier Ultra, Perkin Elmer) and incubated at 37° C. and 5% CO2 in a humidified atmosphere overnight. Compounds were added the next day using an Access Labcyte Workstation with a Labcyte Echo 550 or 555 acoustic dispenser and incubated with the cells for 4 or 24 h. Cells were fixed by adding 25 μL fixation buffer (7.4% formaldehyde (Sigma Aldrich F8775), 0.2% Triton TX100 (Sigma Aldrich F93443) in PBS) for 15 minutes at room temperature. After aspirating the fixing solution, the cells were washed once with 25 μL PBS and 25 μL of Blocking Buffer (10% Goat Serum in PBS) were added to each well and incubated for 30 minutes. Cells were washed with PBS and incubated with 20 μL mouse anti-Smarca4 (BRG1) antibody (Cell Signaling #52251) or rabbit anti-Smarca2 (BRM) antibody (Sigma Aldrich HPA029981) in blocking solution (PBS with 10% FCS) for ca. 2-4 h at RT. For detection of the nuclei, 25 μL of 5 μg/mL Hoechst 33342 (stock 10 mg/mL in H2O; Invitrogen H1399) were added together with Alexa Fluor 647 goat anti-mouse IgG (Invitrogen A-21235) or Alexa Fluor 488 goat anti-rabbit IgG (Invitrogen A-11034) in blocking solution and incubated for 60 min at RT. The cell layer was washed with 25 μL PBS, the wells were filled with 25 μL PBS and the plates sealed with an adhesive sheet. The mean intensity at 488 or 647 nm in the nucleus was measured using an Opera Phenix Plus High-Content Screening System (Perkin Elmer), values were normalized to the background and DMSO control and DC50 values were calculated and analyzed using a four-parametric logistic model.

A further test has as its target T3, SMARCA4 (Homo sapiens, UniProt P51532).
T3 construct: endogenous in cells; host or cells: RKO cells (CRL-2577, ATCC)
As to the kind of experiment: SMARCA4 degradation analysis by imaging in RKO cells (DC50 A4). The format is cell-based. The settings on record: tables 69, 70, 73, 76-78. As for the experimental part: as §1, §2, §3

[1] abbreviates: binary SMARCA2 binding affinity, SPR at 6° C., pH 8.3, read-out: A2 binary.

Molecules are shown by their SMILES. Like-named read-outs stand apart in the source and are kept apart here.

T2 sequence (P51531 whole entry): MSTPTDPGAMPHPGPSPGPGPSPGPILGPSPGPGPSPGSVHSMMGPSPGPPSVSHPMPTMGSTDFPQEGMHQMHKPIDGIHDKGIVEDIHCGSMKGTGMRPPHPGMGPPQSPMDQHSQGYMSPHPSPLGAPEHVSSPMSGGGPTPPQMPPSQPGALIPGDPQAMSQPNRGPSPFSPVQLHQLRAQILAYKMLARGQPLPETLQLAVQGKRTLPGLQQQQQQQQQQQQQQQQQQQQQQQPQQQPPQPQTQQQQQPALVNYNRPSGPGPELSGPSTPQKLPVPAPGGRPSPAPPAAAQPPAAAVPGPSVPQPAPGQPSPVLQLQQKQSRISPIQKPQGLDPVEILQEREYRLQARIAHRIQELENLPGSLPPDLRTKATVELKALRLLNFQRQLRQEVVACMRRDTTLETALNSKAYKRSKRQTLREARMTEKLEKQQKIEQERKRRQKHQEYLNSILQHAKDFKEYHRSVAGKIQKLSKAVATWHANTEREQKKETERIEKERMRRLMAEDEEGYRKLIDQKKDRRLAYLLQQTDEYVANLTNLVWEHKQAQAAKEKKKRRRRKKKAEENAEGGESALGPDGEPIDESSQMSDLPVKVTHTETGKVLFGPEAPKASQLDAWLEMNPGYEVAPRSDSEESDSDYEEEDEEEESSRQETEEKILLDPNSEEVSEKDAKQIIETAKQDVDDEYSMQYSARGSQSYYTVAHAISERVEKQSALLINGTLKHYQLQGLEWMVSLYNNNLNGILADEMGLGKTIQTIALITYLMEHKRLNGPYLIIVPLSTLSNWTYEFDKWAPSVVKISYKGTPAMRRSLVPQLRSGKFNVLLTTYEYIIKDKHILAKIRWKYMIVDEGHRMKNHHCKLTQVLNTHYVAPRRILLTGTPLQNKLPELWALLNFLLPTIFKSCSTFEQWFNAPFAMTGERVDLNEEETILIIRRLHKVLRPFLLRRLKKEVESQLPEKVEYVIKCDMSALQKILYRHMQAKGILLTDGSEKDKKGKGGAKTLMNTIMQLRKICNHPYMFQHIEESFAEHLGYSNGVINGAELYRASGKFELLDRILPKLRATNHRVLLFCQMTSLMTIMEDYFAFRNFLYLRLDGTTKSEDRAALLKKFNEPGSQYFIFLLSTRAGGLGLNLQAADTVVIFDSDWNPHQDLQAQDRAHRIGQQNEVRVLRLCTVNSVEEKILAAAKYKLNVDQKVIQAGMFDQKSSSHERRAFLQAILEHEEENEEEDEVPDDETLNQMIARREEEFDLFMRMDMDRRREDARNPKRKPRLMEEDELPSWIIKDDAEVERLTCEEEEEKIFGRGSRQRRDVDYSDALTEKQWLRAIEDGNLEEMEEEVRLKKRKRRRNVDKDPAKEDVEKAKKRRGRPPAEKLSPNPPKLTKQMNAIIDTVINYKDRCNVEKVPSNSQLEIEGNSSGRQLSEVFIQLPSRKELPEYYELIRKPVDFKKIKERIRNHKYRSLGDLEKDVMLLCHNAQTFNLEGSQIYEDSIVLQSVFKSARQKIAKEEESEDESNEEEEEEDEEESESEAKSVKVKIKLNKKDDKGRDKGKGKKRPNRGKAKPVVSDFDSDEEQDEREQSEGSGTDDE
T3 sequence (P51532 whole entry): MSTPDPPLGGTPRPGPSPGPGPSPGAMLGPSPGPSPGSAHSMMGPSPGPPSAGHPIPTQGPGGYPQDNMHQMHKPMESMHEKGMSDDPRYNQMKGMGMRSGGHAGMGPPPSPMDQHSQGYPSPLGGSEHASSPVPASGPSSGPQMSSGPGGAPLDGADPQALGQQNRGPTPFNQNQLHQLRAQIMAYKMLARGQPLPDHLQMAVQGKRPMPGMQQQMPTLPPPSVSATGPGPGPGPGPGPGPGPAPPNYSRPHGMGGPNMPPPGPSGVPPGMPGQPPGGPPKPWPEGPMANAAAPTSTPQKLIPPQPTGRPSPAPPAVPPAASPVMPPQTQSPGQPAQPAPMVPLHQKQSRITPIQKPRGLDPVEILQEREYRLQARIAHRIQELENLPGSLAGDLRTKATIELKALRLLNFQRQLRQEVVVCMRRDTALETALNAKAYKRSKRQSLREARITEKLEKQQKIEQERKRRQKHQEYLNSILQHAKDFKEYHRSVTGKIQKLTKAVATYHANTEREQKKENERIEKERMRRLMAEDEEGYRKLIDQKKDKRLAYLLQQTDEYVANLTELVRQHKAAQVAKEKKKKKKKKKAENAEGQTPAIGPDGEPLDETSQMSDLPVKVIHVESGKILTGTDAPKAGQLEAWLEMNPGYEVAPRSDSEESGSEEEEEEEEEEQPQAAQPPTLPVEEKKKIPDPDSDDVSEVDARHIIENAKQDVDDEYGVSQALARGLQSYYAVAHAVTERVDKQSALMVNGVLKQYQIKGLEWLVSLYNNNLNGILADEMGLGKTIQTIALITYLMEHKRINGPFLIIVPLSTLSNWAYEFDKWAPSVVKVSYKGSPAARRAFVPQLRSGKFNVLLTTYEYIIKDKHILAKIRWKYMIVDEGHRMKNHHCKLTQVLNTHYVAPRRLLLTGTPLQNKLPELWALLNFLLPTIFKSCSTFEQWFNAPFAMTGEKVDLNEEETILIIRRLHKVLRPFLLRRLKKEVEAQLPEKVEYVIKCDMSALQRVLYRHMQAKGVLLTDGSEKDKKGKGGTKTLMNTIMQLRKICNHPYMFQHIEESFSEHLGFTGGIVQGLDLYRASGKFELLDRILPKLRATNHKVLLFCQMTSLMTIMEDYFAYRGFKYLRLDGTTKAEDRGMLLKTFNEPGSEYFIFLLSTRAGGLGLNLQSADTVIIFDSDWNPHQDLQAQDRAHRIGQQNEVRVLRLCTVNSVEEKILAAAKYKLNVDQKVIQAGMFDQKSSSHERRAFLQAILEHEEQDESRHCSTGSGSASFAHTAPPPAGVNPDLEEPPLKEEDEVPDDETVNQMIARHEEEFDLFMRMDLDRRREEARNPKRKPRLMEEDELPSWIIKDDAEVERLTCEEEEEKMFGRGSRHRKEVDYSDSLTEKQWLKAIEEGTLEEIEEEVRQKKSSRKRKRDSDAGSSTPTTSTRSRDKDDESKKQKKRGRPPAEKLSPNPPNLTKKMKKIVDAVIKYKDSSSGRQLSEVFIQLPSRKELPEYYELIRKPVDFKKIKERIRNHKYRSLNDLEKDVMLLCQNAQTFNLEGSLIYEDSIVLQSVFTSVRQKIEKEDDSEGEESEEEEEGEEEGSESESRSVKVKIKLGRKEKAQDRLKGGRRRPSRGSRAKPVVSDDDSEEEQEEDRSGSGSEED
T1 sequence (P51531 1373-1493 isoform P51531-2 limits assumed): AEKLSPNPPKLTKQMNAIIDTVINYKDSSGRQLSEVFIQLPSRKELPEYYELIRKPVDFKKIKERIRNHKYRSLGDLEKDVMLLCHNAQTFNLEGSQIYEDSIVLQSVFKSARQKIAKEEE

As to `O=c1nc2n(C3CCCC3)c3cc(C4CCNCC4)ccc3n2c2cccc(Br)c12` [Compound 28a, 4-bromo-7-cyclopentyl-9-(4-piperidyl)benzimidazolo[1,2-a]quinazolin-5-one], on SMARCA2BD, the Kd amounted to 48 nM.
As to `CCn1c2cc(C3CCNCC3)c(OCCOCCOC)cc2n2c3cccc(Br)c3c(=O)nc12` [Compound 28k], the Kd at SMARCA2BD (setting [1]) is 45 nM.
The same measure, in the same setting: the same measure for `N[C@H]1CC[C@H](c2ccc3c(c2)n(C2CCCC2)c2nc(=O)c4c(Br)cccc4n32)CC1` [Compound 28m]: 29 nM; for `C[C@H]1CNCCN1c1ccc2c(c1)n(C1CCCC1)c1nc(=O)c3c(Br)cccc3n21` [Compound 28o]: 40 nM.
Consider `C[C@@H]1CNCCN1c1ccc2c(c1)n(C1CCCC1)c1nc(=O)c3c(Br)cccc3n21` [Compound 28p], for which the Kd on SMARCA2BD (setting [1]) was 55 nM.
The same measure, in the same setting: the same measure for `O=c1nc2n(C3CCCC3)c3cc(N4CCNCC4)ccc3n2c2cccc(Br)c12` [Compound 28r]: 44 nM; for `O=c1nc2n(C3CCCC3)c3cc(N4C[C@@H]5C[C@H]4CN5)ccc3n2c2cccc(Br)c12` [Compound 28s]: 70 nM.
Same read-out and setting: the same measure for `O=c1nc2n(C3CCCC3)c3cc(C4CCNCC4)c(OC[C@@H]4CCCO4)cc3n2c2cccc(Br)c12` [Compound 28v]: 45 nM; for `COCCOCCOc1cc2c(cc1C1CCNCC1)n(C1CCCC1)c1nc(=O)c3c(Br)cccc3n21` [Compound 28y]: 50 nM.
As for `CC(C)(C)OC(=O)N1CCC(c2ccc3c(c2)n(C2CCCC2)c2nc(=O)c4c(N)cccc4n32)CC1` [Compound 30a], the Kd on SMARCA2BD (setting [1]) was found to be 541 nM.
The same measure, in the same setting: the result for `CC(C)(C)OC(=O)Oc1cc2c(cc1C1CCN(C(=O)OC(C)(C)C)CC1)n(C1CCCC1)c1nc(=O)c3c(Br)cccc3n21` [Compound 33a] reads 157 nM.
For `Cc1ncsc1-c1ccc([C@H](COCCN2CCC(c3cc4c(cc3OC[C@@H]3CCCO3)n3c5cccc(Br)c5c(=O)nc3n4C3CCCC3)CC2)NC(=O)[C@@H]2C[C@@H](O)CN2C(=O)[C@@H](NC(=O)C2(F)CC2)C(C)(C)C)cc1` [Compound 42t], the DC50 (usually the concentration giving 50% degradation) stood at 3 nM at SMARCA2 and 67 nM at SMARCA4.
In the same order, the values of `Cc1ncsc1-c1ccc([C@H](C[C@@H](C)CN2CCC(c3ccc4c(c3)n(C3CCCC3)c3nc(=O)c5c(Br)cccc5n43)CC2)NC(=O)[C@@H]2C[C@@H](O)CN2C(=O)[C@@H](NC(=O)C2(F)CC2)C(C)(C)C)cc1` [Compound 42u] are 0.3 nM and 0.7 nM.
For the compound `Cc1ncsc1-c1ccc([C@H](CO[C@@H](CN2CCC(c3ccc4c(c3)n(C3CCCC3)c3nc(=O)c5c(Br)cccc5n43)CC2)C2CC2)NC(=O)[C@@H]2C[C@@H](O)CN2C(=O)[C@@H](NC(=O)C2(F)CC2)C(C)(C)C)cc1` [Compound 42v], the figures for the DC50 on SMARCA2 and at SMARCA4 were 11 nM and more than 833 nM, respectively.
For the compound `CCOC(=O)c1ncsc1-c1ccc([C@H](CCCN2CCC(c3ccc4c(c3)n(C3CCCC3)c3nc(=O)c5c(Br)cccc5n43)CC2)NC(=O)[C@@H]2C[C@@H](O)CN2C(=O)[C@@H](NC(=O)C2(F)CC2)C(C)(C)C)cc1` [Compound 42w], the 50% degradation concentration (DC50) at SMARCA2 was determined as 11 nM; on SMARCA4 it was 36 nM.
As for `Cc1ncsc1-c1ccc([C@H](CCCN2CCC(c3ccc4c(c3)n(C3CCCC3)c3nc(=O)c5c(N)cccc5n43)CC2)NC(=O)[C@@H]2C[C@@H](O)CN2C(=O)[C@@H](NC(=O)C2(F)CC2)C(C)(C)C)cc1` [Compound 42x], the DC50 amounted to 0.3 nM on SMARCA2 and 2 nM at SMARCA4.
In the same order, the values of `Cc1ncsc1-c1ccc([C@H](CO[C@H](C)CN2CCC(c3ccc4c(c3)n(C3CCCC3)c3nc(=O)c5c(Br)cccc5n43)CC2)NC(=O)[C@@H]2C[C@@H](O)CN2C(=O)[C@@H](NC(=O)C2(N(C)C)CC2)C(C)(C)C)cc1` [Compound 42y] are 6 nM and 101 nM.
As to `Cc1ncsc1-c1ccc([C@H](CCCN2CCC(c3cc4c(cc3OCCOCCN3CCOCC3)n3c5cccc(Br)c5c(=O)nc3n4C3CCCC3)CC2)NC(=O)[C@@H]2C[C@@H](O)CN2C(=O)[C@@H](NC(=O)C2(F)CC2)C(C)(C)C)cc1` [Compound 42z], the DC50 on SMARCA2 amounted to 20 nM; on SMARCA4, 41 nM.
